Measured values: patent US20250346890A1, “LEUKEMIA TREATMENT” (Deutsches Krebsforschungszentrum, priority 2019, published 2025)

What was measured:
[1] = system: THP-1 cells; experiment: Monocyte-macrophage differentiation of THP-1 cells (FACS / qRT-PCR of CD14, CD11B); assay type: cell-based, human
Description: Cultured cells were lysed in Macherey-Nagel RAI buffer containing 1% β-mercaptoethanol and total RNAs were isolated using NucleoSpin RNA isolation kit (Macherey-Nagel 740955). Reverse transcription and PCR amplification were performed. Primers used in this study are listed in Supplementary Table 1. Graphs show relative gene expressions to GAPDH. […] Statistical analyses were performed using PRISM7 software with unpaired t-test or one-way ANOVA test.
For analyzing macrophage differentiation of THP-1, cells were harvested, pelleted and resuspended in ice-cold blocking buffer (PBS supplemented with 1% BSA and 0.1% NaN3). Cells were treated with Fc Receptor Binding Inhibitor as recommended by the manufacturer (eBioscience 14916173) and stained directly with FITC/APC-conjugated antibodies diluted in blocking buffer or with non-conjugated primary antibodies followed by fluorochrome-labeled secondary antibodies. Isotype-matched antibodies were used as controls. Dead cells were excluded by counterstaining with propidium iodide. For analyzing apoptosis of THP-1, cells were fixed in 4% PFA, permeabilized by MeOH and blocked with PBS supplemented with 1% BSA and 0.1% Tween-20. Cells were stained with anti-active Caspase-3 antibody and fluorochrome-labeled secondary antibody. FACS Samples were analyzed with FACSCalibur or FACSCanto (BD Biosciences). 10,000 events per samples were acquired, and results were processed with Cell Quest or FACSDiva software (BD Biosciences). For BMP4 stimulation, cells were treated with 5 and 25 ng ml^−1 recombinant human BMP4 protein (R&D systems 314-BP). 100, 300 and 1000 nM LDN […] (Tocris 6053) were used for rescue assay. For the THP-1 cell number quantification and differentiation validation in vivo, bone marrow cells were harvested from tibias of NSG mice and red blood cells were removed by ACK Lysing Buffer (Gibco A1049201). Cells were stained and analyzed as above. Here, 50,000 PI-negative events per samples were acquired.
(§1) THP-1 cells were treated with 0.3, 1.0 and 3.0 μg ml^−1 goat polyclonal anti-RSPO2 antibodies (R&D systems AF3266) or goat polyclonal GFP antibodies (ABIN 100085). After 48 hours, medium was replaced including fresh antibodies—and incubated another 24 hours. Western blot analysis and FACS analyses were performed as discussed above.
(§2) The sequences of shRSPO2 and shControl (Table 1) were synthesized, inserted into the transfer plasmid Tet-pLKO-puro (Addgene 21915) and validated by sequencing. Lentivirus was produced with the 3rd generation lentiviral system according to the protocol available at the Trono lab as described (www.epfl.ch/labs/tronolab/). THP-1 cells were infected with lentivirus with 8 μg ml^−1 Polybrene (Sigma TR-1003) and selected with 0.5 μg ml^−1 puromycin (Calbiochem 540411). Single cell clones were obtained by limiting dilutions. The shRNA expression of clones was validated by monitoring RSPO2 expression after doxycycline treatment (1.0 μg ml^−1) for 3 days.

[2] = system: THP-1 cells; experiment: THP-1 cell growth and colony formation assay; assay type: cell-based, human; settings: TetOn-shRSPO2 clones, Dox treatment
Description: as §2
1,000 cells per well of Dox-inducible THP-1 clones were seeded into 24-well plates in RPMI+10% FBS, 1% penicillin-streptomycin, 1 mM sodium pyruvate, 2 mM L-glutamine and 0.5% methylcellulose, with or without Doxycycline (1 μg ml^−1). After 8 days incubation, microscopic dark field images were taken using LEICA DMIL microscope/Canon DS126311 camera.

[3] = system: THP-1 cells; experiment: THP-1 AML xenograft in NSG mice; assay type: in vivo, mouse
Description: For analyzing macrophage differentiation of THP-1, cells were harvested, pelleted and resuspended in ice-cold blocking buffer (PBS supplemented with 1% BSA and 0.1% NaN3). […] Isotype-matched antibodies were used as controls. Dead cells were excluded by counterstaining with propidium iodide. For analyzing apoptosis of THP-1, cells were fixed in 4% PFA, permeabilized by MeOH and blocked with PBS supplemented with 1% BSA and 0.1% Tween-20. […] FACS Samples were analyzed with FACSCalibur or FACSCanto (BD Biosciences). 10,000 events per samples were acquired, and results were processed with Cell Quest or FACSDiva software (BD Biosciences). […] For the THP-1 cell number quantification and differentiation validation in vivo, bone marrow cells were harvested from tibias of NSG mice and red blood cells were removed by ACK Lysing Buffer (Gibco A1049201). Cells were stained and analyzed as above. Here, 50,000 PI-negative events per samples were acquired.
NOD SCID gamma (NSG) mice were recruited from the Center for Preclinical Research, DKFZ, Heidelberg. […] Randomized mouse cohorts (n=6-7 mice/group) were treated with Dox or vehicle throughout the study. Treatment started 3 days prior to cell transplantation via drinking water consisting 1 mg/ml Dox and 5% saccharose, or 5% saccharose only. […] 500,000 cells in 100 μl PBS were injected intravenously into the lateral tail vein of 7-8-week-old female mice. Besides regular health checks, mouse body weight was taken twice per week throughout the experiment. Heparinized blood was collected from the tail vein at days 9 and 22 after transplantation. Terminal blood collection was performed under isoflurane anesthesia followed by cervical dislocation. Necropsies were taken as indicated or when mice reached a stop criterion of the German Society of Laboratory Animal Sciences (GV-SOLAS), until here defined as survival. All mouse experiments were in accordance with the approved guidelines of the local Governmental Committee for Animal Experimentation (RP Karlsruhe, Germany, license G140/19).
For each reaction, 25 ng genomic DNA was used. A standard curve was generated with genomic DNA extracted from NSG mice blood containing known numbers of THP-1 cells and used for converting qPCR fluorescent signals to actual cell numbers. Normal NSG mice blood and nuclease free water were used as negative controls.

[4] = system: BMP4 signaling; experiment: BRE reporter assay in HEPG2 cells stimulated by BMP4; assay type: cell-based, human; settings: HEPG2 cells
Description: BRE luciferase assays were executed using 300,000 ml^−1 of HEPG2 cells in 24-well plates. PGL3-BRE-Luciferase (500 ng ml^−1) and pRL-TK-Renilla plasmids (50 ng ml^−1) were transfected using Lipofectamine 3000. After 24 hours, cells were serum starved 2 hours and stimulated 14-16 hours with 80 ng ml^−1 recombinant human BMP4 protein (R&D systems 314-BP) along with AP tagged RSPO1-4 or flag tagged RSPO1-3 conditioned medium. Luciferase activity was measured with the Dual luciferase reporter assay system (Promega E1960). Firefly luminescence (BRE) was normalized to Renilla. TOPFlash luciferase assays were carried out as previously described (Berger et al. (2017), EMBO Rep 18, 712-725, doi: 10.15252/embr.201643585). […] Statistical analyses were made with the PRISM7 software using unpaired t-test or one-way ANOVA test. Not significant (ns) P>0.05, *P<0.05, **P<0.01, ***P<0.001, and ****P<0.0001.

[5] = system: Xenopus embryos; experiment: Crispr-Cas9-mediated Xenopus rspo2 knockout embryos; assay type: in vivo, Xenopus tropicalis
[6] = system: Smad1; experiment: Western blot of pSmad1 and tSmad1 in THP-1 cells; assay type: cell-based, human; settings: THP-1 cells treated with RSPO2 siRNA plus inhibitor
Description: Cultured cells were rinsed with cold PBS and lysed in Triton lysis buffer ([…] Tris-Cl, pH 7.5, 1% Triton X-100, 150 mM NaCl, 1 mM EDTA, 1 mM EGTA, 1 mM β-glycerophosphate, 1 mM Na3 VO4) or RIPA buffer with complete Protease Inhibitor Cocktail (Roche 11697498001). Lysates were mixed with Laemmli buffer with β-mercaptoethanol and boiled at 95° C. for 5 min to prepare SDS-PAGE samples. Western blot images were acquired with SuperSignal West pico ECL (ThermoFisher 34580) or Clarity Western ECL (Biorad 1705061) using LAS-3000 system (FujiFilm). Quantification of blots was done using ImageJ software.
as §1

[7] = target: T1, ALK3RD (Homo sapiens, UniProt P36894, Q233D); experiment: BRE reporter assay in HEPG2 cells with constitutively active ALK3; assay type: cell-based; settings: RSPO treatment
T1 construct: expressed in transfected cells; host or cells: HEPG2
T1 sequence (P36894 24-532 Q233D): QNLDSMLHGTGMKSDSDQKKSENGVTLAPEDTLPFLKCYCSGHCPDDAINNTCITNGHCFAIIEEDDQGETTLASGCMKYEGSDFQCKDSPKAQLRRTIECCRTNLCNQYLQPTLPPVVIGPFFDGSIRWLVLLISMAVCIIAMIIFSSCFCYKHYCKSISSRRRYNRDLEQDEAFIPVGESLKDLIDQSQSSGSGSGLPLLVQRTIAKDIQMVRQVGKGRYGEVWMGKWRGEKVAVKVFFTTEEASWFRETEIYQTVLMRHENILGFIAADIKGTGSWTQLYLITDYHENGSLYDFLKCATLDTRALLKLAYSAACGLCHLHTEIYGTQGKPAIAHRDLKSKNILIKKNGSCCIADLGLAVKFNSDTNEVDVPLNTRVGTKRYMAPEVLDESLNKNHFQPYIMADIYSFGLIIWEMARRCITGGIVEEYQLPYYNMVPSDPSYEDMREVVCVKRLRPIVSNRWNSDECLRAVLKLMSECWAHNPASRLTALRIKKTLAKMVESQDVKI
Description: Alkaline phosphatase (AP) fusions with RSPOs (human RSPO1^ΔC-AP-pCDNA3, RSPO2^ΔC-AP-pCDNA3, RSPO2^ΔC-AP-pCS2+, RSPO3^ΔC-AP-pCDNA3, murine RSPO4^ΔC-pCDNA3) were generated by replacing the C-terminal domain (ΔC) by AP and used to produce conditioned media. Human RSPO2 wild-type (RSPO2), Furin1 and Furin2 deletion mutants (RSPO2^ΔFU), and TSP1 domain deletion mutant (RSPO2^ΔTSP) are ORFs lacking the C-terminal domain, C-terminally tagged with a Flag-tag and subcloned into pCS2+. R1-TSP^R2, R1-TSP^R2-AP and R1-TSP^R2-Flag plasmids were generated by fusion PCR and cloned in pCS2+. Conditioned media from all RSPO constructs were adjusted to equal concentration by western blot and AP activity measurement, and further validated by WNT reporter assay using HEK293T cells. The extracellular domain of ALK3 (ALK3^ECD) was subcloned in AP-pCS2+ for generating conditioned medium and used in in vitro binding assays. Constitutively active forms of ALK2,3,6 (ALK^QD) were generated by Gln-Asp mutations as described in Fujii et al. (1999), Mol Biol Cell 10, 3801-3813, doi: 10.1091/mbc.10.11.3801. HA-tagged ALK3 was a gift from Dr. D. Koinuma (Goto et al. (2007), J Biol Chem 282, 20603-20611, doi: 10.1074/jbc.M702100200). For Xenopus mRNA microinjection, Xenopus laevis BMP4-pCS2+, myc-tagged RSPO2^ΔC-myc-pCS2+, RSPO2^ΔFU-myc-pCS2+ and RSPO2^ΔTSP-myc-pCS2+ plasmids, DNALK3-pCS2+, membrane-RFP, EYFP-tagged human ALK3-pCS2+ were used for in vitro transcription. Human ZNRF3 and ZNRF3^ΔRING constructs were gifts from Dr. F. Cong (Novartis; Hao et al. (2012), Nature 485, 195-200, doi: 10.1038/nature11019), and ORFs were subcloned in flag-pCS2+ for in vitro transcription.
BRE luciferase assays were executed using 300,000 ml^−1 of HEPG2 cells in 24-well plates. PGL3-BRE-Luciferase (500 ng ml^−1) and pRL-TK-Renilla plasmids (50 ng ml^−1) were transfected using Lipofectamine 3000. […] Luciferase activity was measured with the Dual luciferase reporter assay system (Promega E1960). Firefly luminescence (BRE) was normalized to Renilla. […]

“shRSPO2: Dox-inducible shRNA against RSPO2, SEQ ID NO:10, expressed in THP-1 clones (GACAATGGGTGTAGCCGATCTCGAGATCGGCTACACCCATTGTC)” was tested, and the “BMP signaling and monocyte-macrophage differentiation” value ([1]; THP-1 TetOn-shRSPO2 clones, Dox-administration) was “induced BMP signaling and robust monocyte-macrophage differentiation”, the THP-1 cell growth [2] was “reduced THP-1 cell growth” and the colony formation [2] was “reduced”. For the same molecule, the “prolongation of disease-free survival” value ([3]; NSG mice injected with TetOn-shRSPO2 THP-1 cell line #1, Dox induction, still alive at reporting time) was “at least 2.3 fold”, the survival ([3]; NSG mice injected with TetOn-shRSPO2 THP-1 cell line #2, Dox induction) was “survived almost twice as long” and the tumor burden ([3]; NSG mice, TetOn-shRSPO2 THP-1 cells, Dox induction) was “reduced tumor burden”. The “macrophage differentiation in bone marrow” value ([3]; NSG mice, both TetOn-shRSPO2 cell lines, Dox induction) was “enhanced macrophage differentiation”.

For CN(C)c1cccc2c(S(=O)(=O)NCCCCCN)cccc12 [monodansylcadaverin, reference compound], the “effect on inhibition of BMP signaling by RSPO2” value ([4]; BMP4+RSPO2) was “eliminated inhibition of BMP signaling by RSPO2”.

For “gRNA: previously established guide RNA for Crispr-Cas9 rspo2 knockout, TGACTCCATAGTATCCAGGA (SEQ ID NO:11) (listed as DNA, chemistry not given here)”, the embryo phenotype [5] was “mildly ventralized embryos” and the “BMP target gene expression” value ([5]; sizzled in situ hybridization) was “increased BMP target gene expression”.

c1ccc2c(-c3cnn4cc(-c5ccc(N6CCNCC6)cc5)cnc34)ccnc2c1 [LDN 193189] was tested, and the “Smad1-phosphorylation increased by RSPO2 knockdown” value [6] was “reverted increased Smad1-phosphorylation” and the “monocyte-macrophage differentiation induced by siRSPO2” value ([1]; THP-1 cells, siRSPO2 plus inhibitor) was “impaired monocyte-macrophage differentiation”.

B1: RSPO3: human R-spondin 3 protein (SEQ ID NO:2); conditioned medium or recombinant (Peprotech 120-44) (protein, listed as Homo sapiens)
chain: MHLRLISWLFIILNFMEYIGSQNASRGRRQRRMHPNVSQGCQGGCATCSDYNGCLSCKPRLFFALERIGMKQIGVCLSSCPSGYYGTRYPDINKCTKCKADCDTCFNKNFCTKCKSGFYLHLGKCLDNCPEGLEANNHTMECVSIVHCEVSEWNPWSPCTKKGKTCGFKRGTETRVREIIQHPSAKGNLCPPTNETRKCTVQRKKCQKGERGKKGRERKRKKPNKGESKEAIPDSKSLESSKEIPEQRENKQQQKKRKVQDKQKSVSVSTVH
For B1, the BMP4 signaling ([4]; BMP4 stimulation, treatment with RSPO protein) was “decreased BMP4 signaling” and the “BMP signaling induced by constitutively active ALK3” value [7] was “specifically inhibited”.

B2: RSPO1: secreted R-spondin protein; conditioned medium or recombinant human RSPO1 (Peprotech 120-38) (protein, UniProt Q2MKA7 21-263, looked up)
R-spondin-1: SRGIKGKRQRRISAEGSQACAKGCELCSEVNGCLKCSPKLFILLERNDIRQVGVCLPSCPPGYFDARNPDMNKCIKCKIEHCEACFSHNFCTKCKEGLYLHKGRCYPACPEGSSAANGTMECSSPAQCEMSEWSPWGPCSKKQQLCGFRRGSEERTRRVLHAPVGDHAACSDTKETRRCTVRRVPCPEGQKRRKGGQGRRENANRNLARKESKEAGAGSRRRKGQQQQQQQGTVGPLTSAGPA
For B2, the “BMP signaling induced by constitutively active ALK3” value [7] was “had no effect”.
